Data from US20220289698A1, “INHIBITORS OF HUMAN ATGL” (Karl-Franzens-Universität Graz, priority 2019, published 2022).
Like-named read-outs stand apart in the source and are kept apart here.

What was measured:
human ATGL = molecular target: T1, human ATGL (Homo sapiens, UniProt Q96AD5); test: TG hydrolase activity, Expi cell lysates expressing human ATGL + CGI-58, radiolabelled triolein; assay type: biochemical
T1 construct: made in house; host or cells: Expi cells (lysate, not purified)
T1 sequence (Q96AD5 1-504): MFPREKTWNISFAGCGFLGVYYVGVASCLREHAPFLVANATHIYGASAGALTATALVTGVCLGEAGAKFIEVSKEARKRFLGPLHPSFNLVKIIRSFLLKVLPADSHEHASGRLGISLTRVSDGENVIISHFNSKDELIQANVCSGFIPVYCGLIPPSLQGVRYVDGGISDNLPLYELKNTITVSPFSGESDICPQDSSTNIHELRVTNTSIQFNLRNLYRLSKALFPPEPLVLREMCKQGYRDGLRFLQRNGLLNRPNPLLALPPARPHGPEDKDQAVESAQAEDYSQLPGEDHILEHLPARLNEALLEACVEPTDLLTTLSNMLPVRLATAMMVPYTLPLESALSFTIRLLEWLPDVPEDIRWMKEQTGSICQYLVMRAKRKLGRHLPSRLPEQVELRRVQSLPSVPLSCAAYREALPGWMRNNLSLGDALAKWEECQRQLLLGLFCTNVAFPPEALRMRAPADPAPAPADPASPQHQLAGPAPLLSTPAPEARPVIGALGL
Outline: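 Lysates of Expi cells expressing ATGL, supplemented with purified CGI-58 and inhibitor in DMSO, incubated 1 h at 37 °C with emulsified radiolabelled triolein (330 μM) in potassium phosphate pH 7.0 with 5% FA-free BSA. Released FA counted by liquid scintillation after phase extraction; IC50 versus DMSO control, duplicates.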

murine ATGL = molecular target: T2, murine ATGL (Mus musculus, UniProt Q8BJ56); test: TG hydrolase activity, Expi lysates expressing mouse ATGL + CGI-58, radiolabelled triolein; assay type: biochemical
T2 construct: made in house; host or cells: Expi cells (lysate)
T2 sequence (Q8BJ56 1-486): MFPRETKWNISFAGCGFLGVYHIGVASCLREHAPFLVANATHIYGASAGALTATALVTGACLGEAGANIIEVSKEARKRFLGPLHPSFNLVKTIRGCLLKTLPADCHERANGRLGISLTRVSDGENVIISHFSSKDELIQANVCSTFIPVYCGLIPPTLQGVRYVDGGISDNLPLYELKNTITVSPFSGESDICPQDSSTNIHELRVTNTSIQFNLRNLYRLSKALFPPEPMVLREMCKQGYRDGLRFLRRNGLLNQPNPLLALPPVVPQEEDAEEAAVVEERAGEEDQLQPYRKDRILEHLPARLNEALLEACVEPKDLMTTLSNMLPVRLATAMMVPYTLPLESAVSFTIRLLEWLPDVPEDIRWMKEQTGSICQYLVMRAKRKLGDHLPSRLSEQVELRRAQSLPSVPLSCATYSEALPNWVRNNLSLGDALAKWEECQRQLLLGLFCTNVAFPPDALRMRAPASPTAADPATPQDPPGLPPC
Outline: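 Lysates of Expi cells overexpressing mouse ATGL, with added recombinant CGI-58, were incubated with inhibitor at 50 μM. Substrate was emulsified radiolabelled triolein with PC/PI in 100 mM potassium phosphate pH 7.0 and 5% FA-free BSA, 1 h at 37° C. Released FA were extracted and counted by scintillation; triplicates, DMSO control.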

mMGL = molecular target: T3, mMGL (Mus musculus, UniProt O35678); test: mMGL off-target inhibition; assay type: biochemical; settings: read-out: mMGL off-target inhibition [% inhibition at 100 μM]
T3 construct: made in house; host or cells: E. coli (lysate)
T3 sequence (O35678 1-303): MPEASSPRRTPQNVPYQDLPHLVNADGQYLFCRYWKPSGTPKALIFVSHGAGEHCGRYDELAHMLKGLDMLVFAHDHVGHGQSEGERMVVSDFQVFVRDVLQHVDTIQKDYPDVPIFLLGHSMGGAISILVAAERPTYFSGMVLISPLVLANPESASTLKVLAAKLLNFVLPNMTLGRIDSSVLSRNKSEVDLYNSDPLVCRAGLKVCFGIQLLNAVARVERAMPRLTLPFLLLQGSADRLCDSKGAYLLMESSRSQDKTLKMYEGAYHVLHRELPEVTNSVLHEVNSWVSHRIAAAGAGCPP
Method: Lysates from E. coli expressing mMGL were treated with 100 μM Inhibitors and incubated with 1 mM rac-OG substrate for 10 min. Enzyme activity was measured using the Free Glycerol Reagent. Samples measured in triplicates.

Stability in human serum = assay type: in vitro ADME; settings: 37° C., HPLC MS
Method: Inhibitors were incubated in human serum for 0 or 3 h at 37° C. and subsequently extracted with the MTBE method and analyzed via HPLC MS. Samples measured in triplicates.

rhesus monkey ATGL = test: Rhesus monkey ATGL inhibition, Expi lysates + CGI-58; assay type: biochemical
Method: (§1) Lysates from Expi cells overexpressing ATGL from rhesus monkeys (Macaca mulatta) were incubated with recombinant purified ATGL co-activator CGI-58 and ATGL inhibitors at 50 μM. Subsequently, substrate containing radiolabeled triolein was added and liberated FA were extracted and quantified by liquid scintillation. Inhibitors were dissolved in DMSO which was used as control. Samples were measured in triplicates.

goat ATGL = test: Goat ATGL inhibition, Expi lysates + CGI-58; assay type: biochemical
Method: as §1, with “goat (Capra hircus)” for “rhesus monkeys (Macaca mulatta)”

[1] = Example 237, read-out: Inhibition of human ATGL − IC50
[2] = 50 μM compound, Example 237, read-out: Inhibition of murine ATGL at 50 μM − mean [%]
[3] = Example 238, read-out: Inhibition of human ATGL IC50
[4] = 50 μM, Example 238, read-out: % Inhibition of murine ATGL at 50 μM
[5] = 50 μM, overview table, read-out: mouse ATGL inhibition [% inhibition at 50 μM]

CCOc1ccc(-c2cc(OC)cc(C(=O)OC(C)C)n2)cc1 [Example 35]
IC50 (human ATGL; [1]): 1 µM | inhibition at 50 µM (murine ATGL; [2]): 0% | inhibition at 100 µM (mMGL): 0% | Stability in human serum [% rest after 3 h incubation] (Stability in human serum): 75%

CC#CCOC(=O)c1csc(-c2ccc(OCC)cc2)n1 [Example 209, But-2-yn-1-yl 2-(4-ethoxyphenyl)thiazole-4-carboxylate]
IC50 (human ATGL; [3]): 10 µM | inhibition at 50 µM (murine ATGL; [4]): 76% | rhesus monkey ATGL inhibition [% inhibition at 50 μM] (rhesus monkey ATGL): 70% | goat ATGL inhibition [% inhibition at 50 μM (goat ATGL): 25% | inhibition at 100 µM (mMGL): 0% | Stability in human serum [% rest after 3 h incubation] (Stability in human serum): 75%

C#C[C@H](C)OC(=O)c1csc(-c2ccc(OCC)cc2)n1 [Example 210, (S)-But-3-yn-2-yl 2-(4-ethoxyphenyl)thiazole-4-carboxylate]
IC50 (human ATGL; [3]): < 3 µM | inhibition at 25 µM (murine ATGL; Example 238): 47% | inhibition at 50 µM (murine ATGL; [4]): 60% | rhesus monkey ATGL inhibition [% inhibition at 50 μM] (rhesus monkey ATGL): 90% | goat ATGL inhibition [% inhibition at 50 μM (goat ATGL): 20% | inhibition at 100 µM (mMGL): 0% | Stability in human serum [% rest after 3 h incubation] (Stability in human serum): 100%

CCOc1ccc(-c2cccc(C(=O)OCc3ccco3)n2)cc1 [Example 190, Furan-2-ylmethyl 6-(4-ethoxyphenyl)picolinate]
IC50 (human ATGL; [3]): 15 µM | inhibition at 50 µM (murine ATGL; [4]): 80% | rhesus monkey ATGL inhibition [% inhibition at 50 μM] (rhesus monkey ATGL): 70% | goat ATGL inhibition [% inhibition at 50 μM (goat ATGL): 25% | inhibition at 100 µM (mMGL): 0% | Stability in human serum [% rest after 3 h incubation] (Stability in human serum): 0%

CCOc1ccc(-c2nc(C(=O)OCc3ccc(Br)s3)cs2)cc1 [Example 224, (5-Bromothiophen-2-yl)methyl 2-(4-ethoxyphenyl)thiazole-4-carboxylate]
IC50 (human ATGL; [3]): 12 µM | inhibition at 50 µM (murine ATGL; [4]): 68% | rhesus monkey ATGL inhibition [% inhibition at 50 μM] (rhesus monkey ATGL): 70% | goat ATGL inhibition [% inhibition at 50 μM (goat ATGL): 40% | inhibition at 100 µM (mMGL): 70%

COc1cc(C(=O)OC(C)C)nc(-c2ccc(OC(C)C)cc2)c1 [Example 201, Isopropyl 6-(4-isopropoxyphenyl)-4-methoxypicolinate]
IC50 (human ATGL; [3]): < 3 µM | inhibition at 50 µM (murine ATGL; [4]): 45% | inhibition at 50 µM (murine ATGL; [5]): 0% | rhesus monkey ATGL inhibition [% inhibition at 50 μM] (rhesus monkey ATGL): 95% | goat ATGL inhibition [% inhibition at 50 μM (goat ATGL): 0% | inhibition at 100 µM (mMGL): 0% | Stability in human serum [% rest after 3 h incubation] (Stability in human serum): 100%

CCOc1ccc(-c2nc(C(=O)OCc3ccc(Cl)s3)cs2)cc1 [Example 223, (5-Chlorothiophen-2-yl)methyl 2-(4-ethoxyphenyl)thiazole-4-carboxylate]
IC50 (human ATGL; [3]): 12 µM | inhibition at 50 µM (murine ATGL; [4]): 71% | rhesus monkey ATGL inhibition [% inhibition at 50 μM] (rhesus monkey ATGL): 65% | goat ATGL inhibition [% inhibition at 50 μM (goat ATGL): 40% | inhibition at 100 µM (mMGL): 0% | Stability in human serum [% rest after 3 h incubation] (Stability in human serum): 80%

C#C[C@@H](C)OC(=O)c1csc(-c2ccc(OCC)cc2)n1 [Example 211, (R)-But-3-yn-2-yl 2-(4-ethoxyphenyl)thiazole-4-carboxylate]
IC50 (human ATGL; [3]): < 3 µM | inhibition at 25 µM (murine ATGL; Example 238): 73% | inhibition at 50 µM (murine ATGL; [4]): 82% | inhibition at 50 µM (murine ATGL; [5]): 60% | rhesus monkey ATGL inhibition [% inhibition at 50 μM] (rhesus monkey ATGL): 100% | goat ATGL inhibition [% inhibition at 50 μM (goat ATGL): 30% | inhibition at 100 µM (mMGL): 0% | Stability in human serum [% rest after 3 h incubation] (Stability in human serum): 90%

CCOc1ccc(-c2cccc(C(=O)OCc3cccs3)n2)cc1 [Example 189, Thiophen-2-ylmethyl 6-(4-ethoxyphenyl)picolinate]
IC50 (human ATGL; [3]): 25 µM | inhibition at 50 µM (murine ATGL; [4]): 87% | rhesus monkey ATGL inhibition [% inhibition at 50 μM] (rhesus monkey ATGL): 70% | goat ATGL inhibition [% inhibition at 50 μM (goat ATGL): 50% | inhibition at 100 µM (mMGL): 0% | Stability in human serum [% rest after 3 h incubation] (Stability in human serum): 25%

CCCCOC(=O)c1csc(-c2ccc(OCC)cc2)n1 [Example 212, Butyl 2-(4-ethoxyphenyl)thiazole-4-carboxylate]
IC50 (human ATGL; [3]): 7 µM | inhibition at 25 µM (murine ATGL; Example 238): 47% | inhibition at 50 µM (murine ATGL; [4]): 56% | rhesus monkey ATGL inhibition [% inhibition at 50 μM] (rhesus monkey ATGL): 70% | goat ATGL inhibition [% inhibition at 50 μM (goat ATGL): 20% | inhibition at 100 µM (mMGL): 0% | Stability in human serum [% rest after 3 h incubation] (Stability in human serum): 50%

CCOc1ccc(-c2nc(C(=O)OCc3ccsc3)cs2)cc1 [Example 215, Thiophen-3-ylmethyl 2-(4-ethoxyphenyl)thiazole-4-carboxylate]
IC50 (human ATGL; [3]): < 3 µM | inhibition at 25 µM (murine ATGL; Example 238): 71% | inhibition at 50 µM (murine ATGL; [4]): 81% | inhibition at 50 µM (murine ATGL; [5]): 60% | rhesus monkey ATGL inhibition [% inhibition at 50 μM] (rhesus monkey ATGL): 70% | goat ATGL inhibition [% inhibition at 50 μM (goat ATGL): 50% | inhibition at 100 µM (mMGL): 0% | Stability in human serum [% rest after 3 h incubation] (Stability in human serum): 80%

CCOc1ccc(-c2nc(C(=O)OCc3cccs3)cs2)cc1 [Example 152, Thiophen-2-ylmethyl 2-(4-ethoxyphenyl)thiazole-4-carboxylate]
IC50 (human ATGL; [1]): 10 µM | inhibition at 50 µM (murine ATGL; [2]): 74% | rhesus monkey ATGL inhibition [% inhibition at 50 μM] (rhesus monkey ATGL): 10% | goat ATGL inhibition [% inhibition at 50 μM (goat ATGL): 0% | Stability in human serum [% rest after 3 h incubation] (Stability in human serum): 80%

CCOc1ccc(-c2nc(C(=O)OCc3ccoc3)cs2)cc1 [Example 216, Furan-3-ylmethyl 2-(4-ethoxyphenyl)thiazole-4-carboxylate]
IC50 (human ATGL; [3]): < 3 µM | inhibition at 25 µM (murine ATGL; Example 238): 70% | inhibition at 50 µM (murine ATGL; [4]): 81% | rhesus monkey ATGL inhibition [% inhibition at 50 μM] (rhesus monkey ATGL): 70% | goat ATGL inhibition [% inhibition at 50 μM (goat ATGL): 50% | inhibition at 100 µM (mMGL): 0% | Stability in human serum [% rest after 3 h incubation] (Stability in human serum): 60%
